The record followed here is patent US8426437B2, “Pyrroloquinoline derivatives and their use as protein kinases inhibitors” (Pierre Fabre Medicament, priority 2005, dated 2013).

What all share (assay type): biochemical
One assay has as its target T1, TrkA (Homo sapiens, UniProt P04629).
T1 construct: purchased Upstate 14-571
The assay can be described thus: Inhibition of kinase TrkA (Kinase-Glo). Conditions: TrkA 4 μg/ml, 30 μM ATP, two hours at 30° C. The procedure:
Protein TrkA (Upstate 14-571; batch #25634U) is incubated at a concentration of 4 μg/ml in a buffer containing 8 mM of MOPS/NaOH pH7, 0.2 mM EDTA, 40 mM MgAc (Sigma #229768), 1 mM DTT (Fluka #43816), NaOV 1 mM, 0.01% Triton Tx100, in the presence of 1 mg/ml of peptide substrate poly-EY (Upstate #P0275), and 30 μM of ATP.
The dilution buffer for TrkA is as follows: 20 mM MOPS/NaOH pH7, 1 mM EDTA, 5% glycerol, 0.01% Brij35, 0.1% 2-mercapto, 1 mg/ml BSA.
(§1) The compound to be tested is first added to the enzyme to give a reaction volume of 50 μl. The dilution of the compounds of the invention is distributed so as to obtain a scale of final concentrations between 10 nM and 30 μM.
(§2) After incubation of the reaction mixture for two hours at 30° C., the level of ATP that remains is assayed using the Kinase-Glo Luminescent Kinase Assay (Promega #V6712) according to the conditions recommended by the supplier. The luminescence induced is read in a plate reader (Envision-Perkin Elmer).
In general terms: In Kinase-Glo more light means more ATP remaining.

The target in another assay is T2, RET (Homo sapiens, UniProt P07949).
T2 construct: purchased Upstate 14-570MG
Description: Inhibition of RET kinase activity, recombinant RET method (Kinase-Glo). Conditions: RET 2 μg/ml, poly-EY4 substrate, 20 μM ATP, two hours at 30° C. Put shortly: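 Recombinant RET at 2 μg/ml in 20 mM MOPS/NaOH pH 7.0, 1 mM EDTA, 5% glycerol, 0.01% Brij35, 0.1% 2-mercaptoethanol, 1 mg/ml BSA; compounds 10 nM–30 μM final.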

Another assay has as its target T3, TrkB (Homo sapiens, UniProt Q16620).
T3 construct: purchased Upstate 14-507
The assay can be described thus: Inhibition of kinase TrkB (Kinase-Glo). Conditions: TrkB 4 μg/ml, 40 μM ATP, two hours at 30° C. The method, then: Protein TrkB (Upstate 14-507; batch #25578U) is incubated at a concentration of 4 μg/ml in a buffer containing 8 mM of MOPS/NaOH pH7, 0.2 mM EDTA, 40 mM MgAc (Sigma #229768), 1 mM DTT (Fluka #43816), NaOV 1 mM, 25 mM 2-glycerolphosphate (Sigma #G9891), in the presence of 2.5 mg/ml of peptide substrate poly-EY (Upstate #P0275), and 40 μM of ATP.
The dilution buffer for TrkB is as follows: 20 mM MOPS/NaOH pH7, 1 mM EDTA, 5% glycerol, 0.01% Brij35, 0.1% 2-mercapto, 1 mg/ml BSA.
as §1, §2

The next assay has as its target T4, PIM-1 (Homo sapiens, UniProt P11309).
T4 construct: purchased Upstate 14-573
The assay can be described thus: Inhibition of kinase PIM-1 (Kinase-Glo). Conditions: PIM-1 0.625 μg/ml, 10 μM ATP, forty minutes at 30° C. The method, then: Protein PIM-1 (Upstate #14-573 batch 25864U) is incubated at a concentration of 0.625 μg/ml in a buffer containing 8 mM of MOPS/NaOH pH7, 0.2 mM EDTA, 5 mM MgAc (Sigma #229768), 0.01% Triton Tx100, in the presence of 70 μM of peptide substrate S6 Kinase/Rsk2 (Upstate #12-243), and 10 μM of ATP.
The dilution buffer for PIM-1 is as follows: 20 mM MOPS/NaOH pH7, 1 mM EDTA, 5% glycerol, 0.01% Brij35, 0.1% 2-mercapto, 1 mg/ml BSA
as §1
After incubation of the reaction mixture for forty minutes at 30° C., the level of ATP that remains is assayed using the Kinase-Glo Luminescent Kinase Assay (Promega #V6712) according to the conditions recommended by the supplier. The luminescence induced is read in a plate reader (Envision-Perkin Elmer).

SMILES strings stand for the structures. Counter-ions that a name gives are not always drawn.

T1 sequence (P04629 33-796): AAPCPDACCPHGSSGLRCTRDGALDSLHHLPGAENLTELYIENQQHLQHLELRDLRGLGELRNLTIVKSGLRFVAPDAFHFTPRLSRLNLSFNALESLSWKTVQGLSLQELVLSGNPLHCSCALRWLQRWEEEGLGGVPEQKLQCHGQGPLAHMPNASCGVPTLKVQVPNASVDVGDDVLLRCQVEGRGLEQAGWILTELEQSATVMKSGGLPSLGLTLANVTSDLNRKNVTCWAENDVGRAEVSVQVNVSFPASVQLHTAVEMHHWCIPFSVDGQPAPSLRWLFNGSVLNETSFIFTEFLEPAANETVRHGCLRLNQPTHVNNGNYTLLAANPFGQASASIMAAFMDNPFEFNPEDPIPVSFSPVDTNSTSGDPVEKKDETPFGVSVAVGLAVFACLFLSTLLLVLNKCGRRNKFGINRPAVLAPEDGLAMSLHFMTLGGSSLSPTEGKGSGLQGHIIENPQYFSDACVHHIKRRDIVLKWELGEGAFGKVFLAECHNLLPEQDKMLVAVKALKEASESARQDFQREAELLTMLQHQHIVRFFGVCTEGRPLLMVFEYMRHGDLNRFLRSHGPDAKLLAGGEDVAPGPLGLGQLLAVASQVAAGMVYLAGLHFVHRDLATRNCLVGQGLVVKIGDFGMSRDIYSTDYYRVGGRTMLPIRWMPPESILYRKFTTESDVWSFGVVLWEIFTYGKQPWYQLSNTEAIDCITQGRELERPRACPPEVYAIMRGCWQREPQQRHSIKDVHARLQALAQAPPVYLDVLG
T3 sequence (Q16620 32-822): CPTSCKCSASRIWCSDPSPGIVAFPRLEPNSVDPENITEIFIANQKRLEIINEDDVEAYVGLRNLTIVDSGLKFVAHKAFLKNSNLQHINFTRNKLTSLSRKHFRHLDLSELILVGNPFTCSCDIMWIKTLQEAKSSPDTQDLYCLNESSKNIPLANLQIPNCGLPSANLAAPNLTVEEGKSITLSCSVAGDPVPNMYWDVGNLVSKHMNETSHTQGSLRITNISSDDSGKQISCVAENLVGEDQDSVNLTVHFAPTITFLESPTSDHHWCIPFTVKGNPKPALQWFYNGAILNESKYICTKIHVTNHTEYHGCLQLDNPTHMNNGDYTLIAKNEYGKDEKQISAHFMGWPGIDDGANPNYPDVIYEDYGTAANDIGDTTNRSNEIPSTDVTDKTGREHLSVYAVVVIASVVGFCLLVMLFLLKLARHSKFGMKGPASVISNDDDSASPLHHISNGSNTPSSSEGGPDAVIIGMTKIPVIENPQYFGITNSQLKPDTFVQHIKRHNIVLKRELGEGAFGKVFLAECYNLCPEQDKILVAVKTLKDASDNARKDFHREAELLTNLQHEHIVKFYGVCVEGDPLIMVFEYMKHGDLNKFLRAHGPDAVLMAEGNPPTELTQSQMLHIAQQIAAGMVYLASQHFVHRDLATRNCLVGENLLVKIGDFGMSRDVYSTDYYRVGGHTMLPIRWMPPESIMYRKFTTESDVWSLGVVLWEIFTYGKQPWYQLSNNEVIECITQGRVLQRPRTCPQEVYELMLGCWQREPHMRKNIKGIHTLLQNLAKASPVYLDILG
T4 sequence (P11309 whole entry): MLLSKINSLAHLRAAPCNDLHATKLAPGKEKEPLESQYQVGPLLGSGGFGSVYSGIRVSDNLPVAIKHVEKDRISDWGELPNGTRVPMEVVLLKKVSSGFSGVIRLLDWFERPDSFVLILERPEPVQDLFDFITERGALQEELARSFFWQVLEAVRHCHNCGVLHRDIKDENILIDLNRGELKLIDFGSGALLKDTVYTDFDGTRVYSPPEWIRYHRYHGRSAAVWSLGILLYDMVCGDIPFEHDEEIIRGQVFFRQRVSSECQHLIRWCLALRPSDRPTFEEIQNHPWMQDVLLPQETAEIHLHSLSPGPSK
T2 sequence (P07949 29-1114): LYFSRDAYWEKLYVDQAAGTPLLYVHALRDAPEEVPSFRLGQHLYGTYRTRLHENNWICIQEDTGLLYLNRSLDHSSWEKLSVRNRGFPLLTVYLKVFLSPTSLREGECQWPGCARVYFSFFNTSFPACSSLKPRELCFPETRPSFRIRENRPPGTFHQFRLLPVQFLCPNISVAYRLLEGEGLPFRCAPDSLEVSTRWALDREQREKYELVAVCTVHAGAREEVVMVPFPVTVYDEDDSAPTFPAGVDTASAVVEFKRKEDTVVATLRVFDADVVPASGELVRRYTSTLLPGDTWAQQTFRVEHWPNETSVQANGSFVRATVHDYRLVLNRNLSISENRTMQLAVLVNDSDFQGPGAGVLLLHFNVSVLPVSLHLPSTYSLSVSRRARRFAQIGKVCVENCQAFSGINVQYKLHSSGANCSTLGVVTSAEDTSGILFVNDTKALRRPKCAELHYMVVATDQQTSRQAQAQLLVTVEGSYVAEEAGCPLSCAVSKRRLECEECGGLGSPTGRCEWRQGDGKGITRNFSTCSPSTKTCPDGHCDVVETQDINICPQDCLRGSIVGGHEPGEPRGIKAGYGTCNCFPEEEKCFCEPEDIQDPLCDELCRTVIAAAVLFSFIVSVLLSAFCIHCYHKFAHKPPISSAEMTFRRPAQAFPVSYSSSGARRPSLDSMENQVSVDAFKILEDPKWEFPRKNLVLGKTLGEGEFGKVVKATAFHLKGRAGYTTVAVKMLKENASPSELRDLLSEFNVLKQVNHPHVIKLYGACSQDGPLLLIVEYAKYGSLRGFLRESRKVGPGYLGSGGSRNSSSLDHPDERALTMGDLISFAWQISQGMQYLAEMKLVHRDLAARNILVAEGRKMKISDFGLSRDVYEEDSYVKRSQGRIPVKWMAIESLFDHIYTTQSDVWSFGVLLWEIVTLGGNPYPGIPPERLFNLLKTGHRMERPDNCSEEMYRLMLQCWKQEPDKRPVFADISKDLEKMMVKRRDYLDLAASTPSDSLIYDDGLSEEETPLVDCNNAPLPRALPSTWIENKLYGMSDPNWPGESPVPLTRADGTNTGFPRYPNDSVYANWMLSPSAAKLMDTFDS

The term IC50 denotes the concentration needed to halve the response being measured. As for `CCOC(=O)c1c[nH]c2c(=O)[nH]c3ccc(S(=O)(=O)N(C)c4ccccc4)cc3c12` [Compound 3, 8-(Methyl-phenylsulfamoyl)-4-oxo-4,5-dihydro-3H-pyrrolo[2,3-c]quinoline-1-ethyl carboxylate], the IC50 against TrkA is 1 to 10 µM; on RET it was less than 0.1 µM; against TrkB it was 10 to 100 µM; against PIM-1 it was 10 to 100 µM.

Regarding `CCOC(=O)c1c[nH]c2c(=O)[nH]c3ccc(S(=O)(=O)Nc4cccc(OC)c4)cc3c12` [Compound 8, 8-(3-Methoxy-phenylsulfamoyl)-4-oxo-4,5-dihydro-3H-pyrrolo[2,3-c]quinoline-1-ethyl carboxylate], the IC50 against TrkA lay in the range of 10 to 100 µM; on RET, 0.1 to 1 µM; against TrkB it was 10 to 100 µM.

Regarding `CCOC(=O)c1c[nH]c2c(=O)[nH]c3ccc(NS(=O)(=O)c4ccccc4)cc3c12` [Compound 37, 8-Benzenesulfonylamino-4-oxo-4,5-dihydro-3H-pyrrolo[2,3-c]quinoline-1-ethyl carboxylate], the IC50 against TrkA lay in the range of 1 to 10 µM; on RET, 0.1 to 1 µM; against TrkB, 1 to 10 µM; against PIM-1, 10 to 100 µM.

Regarding `CCOC(=O)c1c[nH]c2c(=O)[nH]c3ccc(NS(=O)(=O)c4ccc(F)cc4)cc3c12` [Compound 43, 8-(4-Fluoro-benzenesulfonylamino)-4-oxo-4,5-dihydro-3H-pyrrolo[2,3-c]quinoline-1-ethyl carboxylate], the values for the IC50 against TrkA, at RET and on TrkB were 1 to 10 µM, 0.1 to 1 µM and 1 to 10 µM, respectively.

As to `CCOC(=O)c1c[nH]c2c(=O)[nH]c3ccc(NS(=O)(=O)c4cccc(F)c4)cc3c12` [Compound 44, 8-(3-Fluoro-benzenesulfonylamino)-4-oxo-4,5-dihydro-3H-pyrrolo[2,3-c]quinoline-1-ethyl carboxylate], the IC50 lay within 1 to 10 µM on TrkA, 0.1 to 1 µM at RET and 1 to 10 µM at TrkB.

Consider `CCOC(=O)c1c[nH]c2c(=O)[nH]c3ccc(NS(=O)(=O)c4ccccc4F)cc3c12` [Compound 45, 8-(2-Fluoro-benzenesulfonylamino)-4-oxo-4,5-dihydro-3H-pyrrolo[2,3-c]quinoline-1-ethyl carboxylate], for which the IC50 on TrkA, on RET and on TrkB was 1 to 10 µM throughout.

As to `CCOC(=O)c1c[nH]c2c(=O)[nH]c3ccc(NS(=O)(=O)c4ccc(C(C)(C)C)cc4)cc3c12` [Compound 49, 8-(4-tert-Butyl-benzenesulfonylamino)-4-oxo-4,5-dihydro-3H-pyrrolo[2,3-c]quinoline-1-ethyl carboxylate], the IC50 against TrkA was in the range of 10 to 100 µM; on RET it was 10 to 100 µM; at TrkB, 1 to 10 µM.

As for `CCOC(=O)c1c[nH]c2c(=O)[nH]c3ccc(NS(=O)(=O)c4cccs4)cc3c12` [Compound 56, 4-Oxo-8-(thiophene-2-sulfonylamino)-4,5-dihydro-3H-pyrrolo[2,3-c]quinoline-1-ethyl carboxylate], the IC50 against TrkA lay in the range of 1 to 10 µM; at RET, 0.1 to 1 µM; against TrkB, 1 to 10 µM.

As for `CCOC(=O)c1c[nH]c2c(=O)[nH]c3ccc(N(C)S(=O)(=O)c4ccccc4)cc3c12` [Compound 58, 8-(Benzenesulfonyl-methyl-amino)-4-oxo-4,5-dihydro-3H-pyrrolo[2,3-c]quinoline-1-ethyl carboxylate], the results for the IC50 at TrkA, on RET and at TrkB were 1 to 10 µM, 0.1 to 1 µM and 1 to 10 µM, respectively.

As for `COC(=O)c1c[nH]c2c(=O)[nH]c3ccc(S(=O)(=O)NC4CCCCC4)cc3c12` [Compound 111, 8-Cyclohexylsulfamoyl-4-oxo-4,5-dihydro-3H-pyrrolo[2,3-c]quinoline-1-methyl carboxylate], the IC50 at TrkA, at RET and against TrkB was 1 to 10 µM in each case.

For `CCCOC(=O)c1c[nH]c2c(=O)[nH]c3ccc(S(=O)(=O)NC4CCNCC4)cc3c12` [Compound 114, 4-Oxo-8-(piperidin-4-ylsulfamoyl)-4,5-dihydro-3H-pyrrolo[2,3-c]quinoline-1-propyl carboxylate], the IC50 on TrkA is 10 to 100 µM; at RET, less than 0.1 µM; on TrkB, 10 to 100 µM; on PIM-1 it was 1 to 10 µM.

As for `CCCCOC(=O)c1c[nH]c2c(=O)[nH]c3ccc(S(=O)(=O)NC4CCNCC4)cc3c12` [Compound 115, 4-Oxo-8-(piperidin-4-ylsulfamoyl)-4,5-dihydro-3H-pyrrolo[2,3-c]quinoline-1-carboxylate of butyl], the IC50 against TrkA was 10 to 100 µM; at RET it was less than 0.1 µM; on TrkB, 10 to 100 µM; against PIM-1, 1 to 10 µM.

Regarding `O=C(OCC1CCCCC1)c1c[nH]c2c(=O)[nH]c3ccc(S(=O)(=O)NC4CCNCC4)cc3c12` [Compound 117], the IC50 was 10 to 100 µM against TrkA, 0.1 to 1 µM at RET, 10 to 100 µM on TrkB and 1 to 10 µM on PIM-1.

For `CCCOC(=O)c1c[nH]c2c(=O)[nH]c3ccc(S(=O)(=O)N(C)C4CCNCC4)cc3c12` [Compound 120, 8-(Methyl-piperidin-4-yl-sulfamoyl)-4-oxo-4,5-dihydro-3H-pyrrolo[2,3-c]quinoline-1-propyl carboxylate], the IC50 is 1 to 10 µM against TrkA, less than 0.1 µM at RET, 10 to 100 µM against TrkB and 10 to 100 µM against PIM-1.

`CCOC(=O)c1c[nH]c2c(=O)[nH]c3ccc(S(=O)(=O)N(CCC#N)C4CC4)cc3c12` [Compound 127, 8-[(2-Cyano-ethyl)-cyclopropyl-sulfamoyl]-4-oxo-4,5-dihydro-3H-pyrrolo[2,3-c]quinoline-1-ethyl carboxylate]: the IC50 at TrkA was 1 to 10 µM; on RET it was less than 0.1 µM; on TrkB, 1 to 10 µM; on PIM-1, 10 to 100 µM.

On to `CCOC(=O)c1c[nH]c2c(=O)[nH]c3ccc(S(=O)(=O)N4CCCC4)cc3c12` [Compound 162, 4-Oxo-8-(pyrrolidine-1-sulfonyl)-4,5-dihydro-3H-pyrrolo[2,3-c]quinoline-1-ethyl carboxylate], for which the IC50 against TrkA is 1 to 10 µM; at RET, 0.1 to 1 µM; against TrkB, 1 to 10 µM.

On to `CCOC(=O)c1c[nH]c2c(=O)[nH]c3ccc(S(=O)(=O)O)cc3c12` [Compound 227, 4-Oxo-8-sulfo-4,5-dihydro-3H-pyrrolo[2,3-c]quinoline-1-ethyl carboxylate], for which the IC50 against TrkA, on RET, against TrkB and on PIM-1 was 1 to 10 µM in each case.

Regarding `CCOC(=O)c1c[nH]c2c(=O)[nH]c3ccc(-c4cccc(N)c4)cc3c12` [Compound 234, Trifluoroacetate of 8-(3-aminophenyl)-4-oxo-4,5-dihydro-3H-pyrrolo[2,3-c]quinoline-1-ethyl carboxylate], the IC50 lay in the range of 1 to 10 µM at TrkA, 0.1 to 1 µM at RET and 1 to 10 µM at TrkB.

For `CCOC(=O)c1c[nH]c2c(=O)[nH]c3ccc(-c4ccnc(Nc5ccccc5)n4)cc3c12` [Compound 266, 4-Oxo-8-(2-phenylamino-pyrimidin-4-yl)-4,5-dihydro-3H-pyrrolo[2,3-c]quinoline-1-ethyl carboxylate], the IC50 against TrkA, at RET and on TrkB was 1 to 10 µM each time.

Turning to `CCOC(=O)c1c[nH]c2c(=O)[nH]c3ccc(-c4ccnc(Nc5nc6ccccc6[nH]5)n4)cc3c12` [Compound 267, 8-[2-(1H-Benzoimidazol-2-ylamino)-pyrimidin-4-yl]-4-oxo-4,5-dihydro-3H-pyrrolo[2,3-c]quinoline-1-ethyl carboxylate], the half-inhibitory concentration (IC50) against TrkA is 10 to 100 µM; on RET, 1 to 10 µM; against TrkB it was 10 to 100 µM.
